Data taken from patent publication US5583000A, “Protease-binding compounds and methods of use” (priority 1993, dated 1996).

Tests used:
[1] = biological target: T1, HIV-2 protease (Human immunodeficiency virus type 2 subtype A, UniProt P04584); assay: biochemical; conditions: 1M NaCl
T1 construct: the coding region of the 99-amino acid protease; made in house; host or cells: Saccharomyces cerevisiae strain AB110, plasmid pHIV2PR115
Method: The decapeptide was synthesized by conventional solid-state methods. Reactions were carried out and fractionated by HPLC. Conversion of the decapeptide to the two pentapeptides was quantitated by integration of the peak areas and comparison to product standard curves.
Enzymatic Inhibition. […] Each data point was done in triplicate and initial enzyme rates were fit to the Michaelis-Menten equation using a nonlinear regression program ("Enzfitter" from Biosoft).

[2] = in vitro
Method: Cytotoxicity. The MTT assay was performed as follows:
The cells were seeded in 96-well plates and grown overnight to near 50% confluency. A serial dilution (1 to 500 μM) of each compound in culture media was prepared and 250 μL/well was added in duplicate. The cells were allowed to grow for various periods of time (6, 24, 48 hours) and any precipitation of compounds in the wells was noted. The assay was performed by removing 200 μL of the culture media and adding 25 μL of MTT solution (2 mg/mL in phosphate buffered saline (PBS)). This was incubated for 4 hours at 37° C. and live cells began to turn purple while the solution remained yellow. To quench the reaction and solubilize the reaction product, 160 μL of acidified isopropanol (4 mL 1N HCl for 96 mL alcohol) were added and the resulting mixture was mixed vigorously to dissolve purple crystals. Absorbance was determined at 550-570 nm on an ELISA plate reader within 0.5-2 hours. […] To obtain the LD50 values for each compound, the concentration at which the absorbance is haft of that for the untreated cells was determined.

[3] = physchem
[4] = biological target: HIV-1 protease (Human immunodeficiency virus type 1 group M subtype B, UniProt P03369); assay: biochemical; conditions: for IC50: HIV-1 Protease IC50 (μM) 1M NaCl

T1 sequence (P04584 514-612 limits assumed): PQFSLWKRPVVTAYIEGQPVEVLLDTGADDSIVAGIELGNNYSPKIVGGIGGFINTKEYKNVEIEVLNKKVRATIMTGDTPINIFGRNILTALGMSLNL

Compound	IC50 [1] [µM]	CC50 at 6 h [2] [µM]	solubility [3] [µM]	HIV-1 Protease Therapeutic Index (LD50 /IC50) [4]	IC50 [4] [µM]	CC50 at 4 h [2] [µM]
O=C(CCCN1CCC(O)(c2ccccc2)CC1)c1ccccc1 [UCSF34, 4-(4-phenyl-4-hydroxypiperidinyl)butyrophenone]	288	> 500	> 500	> 1.25	400	
O=C(CCCN1CCC(O)(c2ccc(Cl)cc2)CC1)c1ccc(-c2ccccc2)cc1 [UCSF36, 4-[4-(p-chlorophenyl)-4-hydroxypiperidinyl]-4'-phenylbutyrophenone]	53	50	< 50	1.4	32	
C=C(CCCN1CCC(O)(c2ccc(Cl)cc2)CC1)c1ccc(F)cc1 [UCSF37, 1-[4-(4-chlorophenyl)-4-hydroxypiperidinyl]-4-(4-fluorophenyl)-4-pentene]	34	50	< 200	1.3	39	
CSCC(O)(CCCN1CCC(O)(c2ccc(Cl)cc2)CC1)c1ccc(F)cc1 (stereo not drawn) [UCSF39, 5-[4-(4-chlorophenyl)-4-hydroxypiperidinyl]-2-(4-fluorophenyl)pentan-2-ol-1-methylsulfide]	135	90	> 500	1.2	75	
C=CC(O)(CCCN1CCC(O)(c2ccc(Cl)cc2)CC1)c1ccc(F)cc1 (stereo not drawn) [UCSF40, 6-[4-(4-chlorophenyl)-4-hydroxypiperidinyl]-3-(4-fluorophenyl)hex-1-en-3-ol]	200	100	< 100	1.25	80	
Cc1ccc(C(=O)CC(CN2CCC(O)(c3ccc(Cl)cc3)CC2)c2ccccc2)cc1 (stereo not drawn) [UCSF43, 4-[4-(p-chlorophenyl)-4-hydroxypiperidinyl]-3-phenyl-4'-methylbutyrophenone]	27	350	> 500	7(1)	50	
Cc1ccc(C(=O)CCC(c2ccccc2)N2CCC(O)(c3ccc(Cl)cc3)CC2)cc1 (stereo not drawn) [UCSF44, 4-[4-(p-chlorophenyl)-4-hydroxypiperidinyl]-4-phenyl-4'-methylbutyrophenone]	43	200	< 25	5.7(0.7)	35	
OC1(c2ccc(Cl)cc2)CCN(CCN(Cc2ccccc2)Cc2ccccc2)CC1 [UCSF46, 2-[4-(4-chlorophenyl)-4-hydroxypiperidinyl]-(N,N-dibenzyl)ethylamine]	34	20	> 500	0.7	30	
OC1(c2ccc(Cl)cc2)CCN(CCC[Si](c2ccccc2)(c2ccccc2)c2ccccc2)CC1 [UCSF47, (3-[4-(4-chlorophenyl)-4-hydroxypiperidinyl)-1-propyl)triphenylsilane]	1.5	15	> 500	0.2	90	
OC1(c2ccc(Cl)cc2)CCN(CCCC2(c3ccccc3)OCCO2)CC1 [UCSF49]	180	120	< 50	1.2	100	
CC(CCN1CCC(O)(c2ccc(Cl)cc2)CC1)C(=O)c1ccc(F)cc1 (stereo not drawn) [UCSF50]	126	90	> 500		100	
O=C(CCCN1CCC(O)(c2ccc(Cl)cc2)CC1)c1ccccc1-c1ccccc1 [UCSF51, 4-(4-(p-chlorophenyl)-4-hydroxypiperidinyl)-2'-phenylbutyrophenone]	68	45	< 250		40	
O=C(CCCN1CCC(O)(c2ccc(Cl)cc2)CC1)c1cccc(-c2ccccc2)c1 [UCSF52, 4-(4-(p-chlorophenyl)-4-hydroxypiperidinyl)-3'-phenylbutyrophenone]	19	10	< 250	0.5	20	
OC1(c2ccc(Cl)cc2)CCN(CCCNCc2ccccc2)CC1 [UCSF55, 3-[4-(4-chlorophenyl)-4-hydroxypiperidinyl]-N-(benzyl)propylamine]	> 2500		> 500	< 0.02	2500	60
OC1(c2ccc(Cl)cc2)CCN(CCCC(O)(c2ccccc2)c2ccccc2-c2ccccc2)CC1 (stereo not drawn) [UCSF56]	11		< 500		20	20
OC1(c2ccc(Cl)cc2)CCN(CCCC(O)(c2ccccc2)c2cccc(-c3ccccc3)c2)CC1 (stereo not drawn) [UCSF57, 4-(4-(p-chlorophenyl)-4-hydroxypiperidinyl)-1-phenyl-1-(3'-phenylphenyl)-butan-1-ol]	14		< 500		10	25
COCCN(CCN1CCC(O)(c2ccc(Cl)cc2)CC1)Cc1ccccc1 [UCSF58, 2-[4-(4-chlorophenyl)-4-hydroxypiperidinyl]-N-benzyl-N-(2-methoxyethyl)ethylamine]	290		> 500	< 0.3	300	110
OC1(c2ccc(Cl)cc2)CCN(CCCC2(c3cccc(-c4ccccc4)c3)SCCS2)CC1 [UCSF59]	7		< 500		8	45
O=C(CCCN1CCC(CO)(c2ccccc2)CC1)c1ccc(F)cc1 [UCSF60]	> 2500		> 500	> 0.2	2500	> 500
OC1(c2ccc(Cl)cc2)CCN(CCCN(CCc2ccccc2)Cc2ccccc2)CC1 [UCSF61, 3-[4-(4-chlorophenyl)-4-hydroxypiperidinyl]-N-benzyl-N-(2-phenyl-ethyl)-propylamine]	230	40	< 500	0.2-0.4	220	
O=C(CCCN1CCC(O)(c2ccc(Cl)cc2)CC1)c1ccccc1 [UCSF62]	40	380	< 250		100	
OC1(c2ccc(Cl)cc2)CCN(CCCN(Cc2ccccc2)Cc2ccc(-c3ccccc3)cc2)CC1 [UCSF63]	15	25	> 500		18	
O=C(Cc1ccccc1)N(CCCN1CCC(O)(c2ccc(Cl)cc2)CC1)Cc1ccccc1 [UCSF66]	48	25	< 250	0.3	70	
O=C(CCC[N+]1([O-])CCC(O)(c2ccc(Cl)cc2)CC1)c1cccc(-c2ccccc2)c1 (stereo not drawn) [UCSF67]	10	> 25	> 25	0.3	80	
C#CCC(CCN1CCC(O)(c2ccc(Cl)cc2)CC1)C(=O)c1ccc(F)cc1 (stereo not drawn) [UCSF68]	48	100	< 500		105	
